≈ marks a conversion by molar mass, not a printed value. Read-outs that look alike come from different tables or passages of the source.
How the values were obtained:
ordinary kuramochi cells = test: XTT cell viability assay, ordinary kuramochi cells; assay type: cell-based; details: Homo sapiens
Method: Kuramochi cells is a high-grade serous ovarian carcinoma (HGSOC) cell line purchased from Japan Cell Bank. Gene expressions of this cell line was previously confirmed to be mimicking HGSOC (Domcke, S.; Sinha, R.; Levine, D. A.; Sander, C.; Schultz, N. Nat. Commun. 2013, 4, 2126). The cell line was maintained in Dulbecco's Modified Eagle Medium (DMEM; Sigma, St. Louis, Mo., USA) supplemented with 10% fetal bovine serum (FBS), 0.1% non-essential amino acids (NEAA), 2 mM L-glutamine, and 1% penicillin-streptomycin. The cells were incubated at 37° C. with 5% CO2.
(§1) The half-maximal inhibitory concentration (IC50) of BP is determined in ALDH^+ and ordinary kuramochi cells. IC50 is determined by assessing the cell viability under different concentration of BP. For example, cell viability was determined by XTT assay (Biological Industries Ltd., Kibbutz Beit Haemek, Israel) following the instruction provided by the manufacturer. […] After 2-5 h of incubation at 37° C., plates were analyzed by spectrophotometry to determine the optical density of the solutions at a wavelength of 450 nm (reference wavelength, 650 nm) to determine viable cell number. […] The equation is expressed as follows: Y=d+(a−d)/(1+(X/c)^B), where Y is the response, and X is the concentration. […]

ALDH^+ kuramochi cells [1] = test: XTT cell viability assay, ALDH+ kuramochi cells (cancer stem cells); assay type: cell-based; details: Homo sapiens, 48 h, BP 0-400 μg/ml
Method: To evaluate and characterize the kuramochi cells, the expression of the cancer stem cell (CSC) marker, ALDH, was assessed using flow cytometry. Specifically, fluorescence-activated cell sorting (FACS) was used to isolate ALDH^+ cells from the kuramochi cell line. Then, the Aldefluor assay kit (Stem Cell Technologies, Cambridge, Mass., USA) was used to determine the ALDH activity. The activated Aldefluor reagent was used to trypsinized and incubated with cells for 50 min at 37° C. Cells were incubated with the inhibitor, N,N-diethylaminobenzaldehyde (DEAB), as control cells to identify for ALDH^+ and ALDH^− cell populations. […]
as §1

ALDH^+ kuramochi cells [2] = test: Boyden chamber (transwell) cell migration assay; assay type: cell-based, human; details: 48 hours, vs untreated cells
Method: For assessment of cell migration, kuramochi cells (5×10^4 cells) were seeded into the top well of a Boyden chamber (24-well transwell) with a pore size of 8 m (Costar, Corning Inc., Corning, N.Y., USA). The cells were allowed to migrate toward the lower well filled with the same culture medium with BP at a concentration of 100 or 200 μg/ml or without BP treatment. After 48 hours of migration, crystal violet (Sigma) was used to stain the migrated cells. The stained cells were counted using a bright-field microscope. Each experiment was repeated three times.

ALDH^+ kuramochi cells [3] = test: Matrigel-coated Boyden chamber invasion assay; assay type: cell-based, human; details: 24 hours, vs untreated cells
Method: For assessment of cell invasion, the invasion assays were carried out in Matrigel-coated Boyden chambers (filter pore size, 8 μM) in 24-well plates (BD). In the top wells, culture medium without serum was seeded with 5×10^4 cells. The bottom wells were added with medium containing 10% FBS and BP (0, 100, or 200 μg/ml). Treatments were added to both upper and lower chambers as indicated. After 24 hours, the free cells were removed gently with a cotton swab. The invading cells were fixed with 4% formaldehyde and Giemsa stained. The slides were air-dried and photographed, and the cells were counted.

ALDH^+ kuramochi cells [4] = test: TUNEL apoptosis assay in cultured cells; assay type: cell-based, human; details: BP 200 μg/ml for 48 hours vs no BP, p<0.01
Method: (§2) The level of apoptosis was compared between ALDH^+ kuramochi cells with and without BP treatment using the terminal deoxynucleotidyl transferase dUTP nick end labeling (TUNEL) assay. TUNEL assay was carried out to evaluate cell apoptosis using a TUNEL Assay Kit (Roche, Ind., USA) according to the manufacturer's instructions. Specifically, ALDH^+ kuramochi cells were seeded with 1×10^5 cells in each well of 12-well culture plates. Cultured cells were allowed to attach for 24 hours, and then treated with 200 μg/ml of BP for 48 hours. Adherent tumor cells were fixed in 4% paraformaldehyde. TUNEL probes were used to detect breaks in DNA strands, followed by incubation in a permeabilization solution for 2 min on ice. Cells were washed twice in phosphate buffered saline (PBS) and the TUNEL reaction mixture was added, followed by incubation at 37° C. for 60 min in a humidified atmosphere in the dark. Samples were washed in PBS twice and observed under a fluorescence microscope.

ALDH^+ kuramochi cells [5] = test: Western blot of cleaved caspases in cultured cells; assay type: cell-based, human; details: BP 100 μg/ml or 200 μg/ml, 48 hours
Text: Accordingly, the effect of BP on the apoptotic signaling pathway was further investigated by quantifying the amount of activated caspase proteins by western blot analysis. […] The cell lysates were loaded onto a gradient 5-20% sodium dodecyl sulfate-polyacrylamide gradient gel. After electrophoretic separation, the proteins were transferred to a polyvinylidene difluoride membrane (Bio-Rad). The membrane was blocked at room temperature in a solution of 3% non-fat dry milk in PBS and 0.1% Tween-20 and then rinsed in PBS/0.1% Tween-20. Blots were incubated with diluted solutions of polyclonal anti-caspase 3 and 8, or anti-cleaved caspase 3, 7, 8, or 9 antibodies (1:200, St. John's Lab, London, UK) and treated with 1:5000 diluted anti-rabbit immunoglobulin G horseradish peroxidase (HRP) for staining (Amersham GE, Taipei, Taiwan). Beta-actin and tubulin proteins (Santa Cruz Biotechnology, Santa Cruz, Calif., USA) were used as internal controls. HRP signals were detected using an electrochemiluminescence kit (Promega, Fitchburg, Wis., USA).

ALDH^+ kuramochi cells [6] = test: XTT viability, BP combined with cisplatin or paclitaxel; assay type: cell-based, human; details: 72 hours
Method: To determine whether BP affects the toxicity of these chemotherapeutic agents, BP was added to cisplatin and paclitaxel treatment of ovarian cancer cells in vitro. ALDH^+ kuramochi cells (2500 ALDH^+ cells/well) in a 96-well plate were treated with BP (25 μg/ml) in combination with cisplatin (0, 5, or 10 μM) or with paclitaxel (0, 10 or 50 nM). Each experiment was conducted in triplicate. Plates were incubated at 37° C. with 5% CO2 for 72 hours. Viable cells were counted by the XTT assay as describe above.

[7] = system: ALDH^+ kuramochi xenograft; test: Subcutaneous xenograft tumor growth and histology in NOD-SCID mice; assay type: in vivo
Method: To investigate tumor growth in vivo, the subcutaneous xenograft model is used widely in the research and allows easy detection of tumor growth and size. Herein, human ovarian cancer xenografts were used to investigate the tumor-inhibiting effect of BP in mice. The animal experiment procedures were approved by the Animal Research and Care Committee of the Buddhist Tzu Chi General Hospital (106-48). All procedures were performed in compliance with the National Institutes Health Guide for the Care and Use of Laboratory Animals. Non-obese, diabetic-severe combined immune deficiency mice (NOD-SCID) (strain NOD.CB17-Prkdcscid/JTcu) purchased from Tzu Chi University were used for these experiments.
ALDH^+ kuramochi cells (1×10^6) were injected subcutaneously into the backs of 4 to 5-week-old female mice. After tumors had grown to a volume of 50 mm^3, mice were separated into two groups (control and treatment groups; n=6 in each group). Controls were treated with vehicle alone (10% dimethyl sulfoxide (DMSO), 20% ethanol in PBS), and the experimental group was treated with different doses of BP (100 or 200 mg/kg) for 5 days. Tumor dimensions (length and width) were measured with calipers, and the tumor volume was determined using the following formula: volume=½ (length×width^2). […] The morphology and cell density were observed and recorded.

[8] = system: ALDH^+ kuramochi xenograft; test: TUNEL assay of xenograft tumor tissue; assay type: in vivo, mice; details: BP 200 mg/kg, p<0.001
Method: as §2
With BP treatment (200 mg/kg), the tumor volumes were smaller than those of control mice treated with the vehicle starting from day 11 to day 26 (p<0.001), as shown in FIG. 7A. […] TUNEL assay was also carried out to evaluate cell viability in the xenograft tumors, using the reagents and procedures as described above but with tumor tissue fixed in formalin and embedded in paraffin and sectioned with a 3 m of thickness. […]

[9] = system: ALDH^+ kuramochi xenograft; test: Western blot of caspases in xenograft tumors; assay type: in vivo, mice; details: xenograft treated with BP vs control without BP
Method: Accordingly, the effect of BP on the apoptotic signaling pathway was further investigated by quantifying the amount of activated caspase proteins by western blot analysis. Specifically, ALDH^+ kuramochi cells were treated with BP (at 100 μg/ml for 48 hours) and lysed. The cell lysates were loaded onto a gradient 5-20% sodium dodecyl sulfate-polyacrylamide gradient gel. After electrophoretic separation, the proteins were transferred to a polyvinylidene difluoride membrane (Bio-Rad). The membrane was blocked at room temperature in a solution of 3% non-fat dry milk in PBS and 0.1% Tween-20 and then rinsed in PBS/0.1% Tween-20. Blots were incubated with diluted solutions of polyclonal anti-caspase 3 and 8, or anti-cleaved caspase 3, 7, 8, or 9 antibodies (1:200, St. John's Lab, London, UK) and treated with 1:5000 diluted anti-rabbit immunoglobulin G horseradish peroxidase (HRP) for staining (Amersham GE, Taipei, Taiwan). Beta-actin and tubulin proteins (Santa Cruz Biotechnology, Santa Cruz, Calif., USA) were used as internal controls. HRP signals were detected using an electrochemiluminescence kit (Promega, Fitchburg, Wis., USA).
With BP treatment (200 mg/kg), the tumor volumes were smaller than those of control mice treated with the vehicle starting from day 11 to day 26 (p<0.001), as shown in FIG. 7A. […] TUNEL assay was also carried out to evaluate cell viability in the xenograft tumors, using the reagents and procedures as described above but with tumor tissue fixed in formalin and embedded in paraffin and sectioned with a 3 m of thickness. Also, protein levels of cleaved caspase 3, caspase 9, and caspase 7 were examined using western blots as described above to examine apoptotic pathway activation in xenograft tumors.

CCCC=C1OC(=O)c2ccccc21 [BP, n-butylidenephthalide]
IC50 (ordinary kuramochi cells; 48 h of culture, BP 0-240 μg/ml, read-out: IC50 of BP for the ordinary kuramochi cells (figure legend)): 206 mg/L (≈ 1100 µM) | IC50 (ordinary kuramochi cells; 48 h of treatment, XTT, 4PL fit, read-out: IC50 of BP for ordinary kuramochi cells): 206 mg/L (≈ 1100 µM) | IC50 (ALDH^+ kuramochi cells [1]): 317 mg/L (≈ 1690 µM) | migration of ALDH^+ cells (ALDH^+ kuramochi cells [2]; BP 100 μg/ml, p<0.01): significantly decreased | migration of ALDH^+ cells (ALDH^+ kuramochi cells [2]; BP 200 μg/ml, p<0.001): significantly decreased | invasion of ALDH^+ cells (ALDH^+ kuramochi cells [3]; BP 100 μg/ml, p<0.01): significantly decreased | invasion of ALDH^+ cells (ALDH^+ kuramochi cells [3]; BP 200 μg/ml, p<0.001): significantly decreased | TUNEL^+ cells (ALDH^+ kuramochi cells [4]): Significantly more | protein level of cleaved caspase 7 (ALDH^+ kuramochi cells [5]): increased | protein level of cleaved caspase 8 (ALDH^+ kuramochi cells [5]): increased | protein level of cleaved caspase 9 (ALDH^+ kuramochi cells [5]): increased | protein level of cleaved caspase 3 (ALDH^+ kuramochi cells [5]; p<0.001): increased | cell viability with cisplatin plus BP vs cisplatin without BP (ALDH^+ kuramochi cells [6]; BP 25 μg/ml with cisplatin 0, 5 or 10 μM, 5 μM p<0.05, 0 and 10 μM p<0.01): significantly lowered | numbers of viable cells with paclitaxel plus BP vs paclitaxel without BP (ALDH^+ kuramochi cells [6]; BP 25 μg/ml with zero or low concentration of paclitaxel (0, 10 nM), p<0.01): significantly less | tumor volumes vs vehicle control ([7]; BP 200 mg/kg for 5 days, day 11 to day 26, p<0.001): smaller | nuclei of xenograft tumors (H & E staining) vs control ([7]; BP-treated xenograft tumors): denser | TUNEL^+ cells in xenograft tumors [8]: significantly more | protein level of caspase 7 in xenograft [9]: increased | protein level of caspase 9 in xenograft [9]: increased | protein level of cleaved caspase 3 in xenograft [9]: increased
